The record followed here is patent US20090233966A1, “Analogues of the Azinomycins as Anti-Tumour Agents and as Prodrugs” (School of Pharmacy, University of London, priority 2005, published 2009).

Like-named read-outs stand apart in the source and are kept apart here.

One test deals with 786-0. Briefly: NCI 60 cell panel growth inhibition. The test is classed as cell-based, human. The following applies: RENAL, read-out: anti-tumour activity GI50. An excerpt: (§1) Examples 6 and 7 make use of the NCl 60 cell panel. This is an in vitro cell line screening project providing direct support to the National Cancer Institute's USA Developmental Therapeutic Programme for anti cancer discovery. The methodolgy for the cell line's operation is described by Boyd et al in Drug Development Research 1995, 34, 91-109.

Another test concerns M14. Briefly: NCI 60 cell panel growth inhibition. The test is classed as cell-based, human. The following applies: MELAN, read-out: anti-tumour activity GI50.
From the text: as §1

The next test deals with NCI-H522. Briefly: NCI 60 cell panel growth inhibition. It counts as cell-based, human. The following applies: NSCLC, read-out: anti-tumour activity GI50.
From the text: as §1

For the next test, the system named is OVCAR-3. The test can be described thus: NCI 60 cell panel growth inhibition. It counts as cell-based, human. The following applies: OVAR, read-out: anti-tumour activity GI50.
From the text: as §1

The subject of the next test is SF-268. The test can be described thus: NCI 60 cell panel growth inhibition. The test is classed as cell-based, human. The following applies: CNS, read-out: anti-tumour activity GI50.
From the text: as §1

For a further test, the system named is SKOV-3. Briefly: NCI 60 cell panel growth inhibition. The test is classed as cell-based, human. The following applies: read-out: anti-tumour activity GI50.
From the text: as §1

Another test deals with SN12C. Briefly: NCI 60 cell panel growth inhibition. The following applies: RENAL, read-out: anti-tumour activity GI50. It counts as cell-based, human.
From the text: as §1

The next test relates to SNB-19. The test can be described thus: NCI 60 cell panel growth inhibition. The test is classed as cell-based, human. The following applies: CNS, read-out: anti-tumour activity GI50.
From the text: as §1

Another test relates to TK10. Briefly: NCI 60 cell panel growth inhibition. It counts as cell-based, human. The following applies: read-out: anti-tumour activity GI50.
From the text: as §1

The subject of a further test is HCT-15. The test can be described thus: NCI 60 cell panel growth inhibition. It counts as cell-based. The following applies: Homo sapiens, COLON, read-out: anti-tumour activity GI50.
From the text: as §1

The subject of the next test is SNB-75. The test can be described thus: NCI 60 cell panel growth inhibition. The test is classed as cell-based. The following applies: Homo sapiens, CNS, read-out: anti-tumour activity GI50.
From the text: as §1

Test [1] relates to linear double stranded plasmid pUC18 DNA. The test can be described thus: DNA crosslinking. It counts as biochemical. The following applies: for EC50: read-out: CR50 (concentration at which 50% of the duplex is crosslinked). As to the method:
Plasmid DNA pUC 18 was linearised by digestion with Hind III. The linear DNA was then dephosphorylated with BAP and ^32P-radiolabelled on the 5′-end. The DNA was then purified by EtOH precipitation to remove unincorporated γ-^32P ATP and the DNA resuspended in sterile double distilled H2O. To each reaction sample was added ^32P-end labelled DNA and drug at the appropriate concentration. Following incubation at 37° C. for the required time, the reaction was terminated by the addition of Stop Solution Buffer. The DNA-drug adduct was EtOH precipitated and dried by lyophilisation. Each dried DNA sample including an untreated DNA single strand as a control was denatured by resuspending in alkali denaturing buffer. The double stranded control DNA was then dissolved in sucrose loading buffer and the samples loaded and electrophoresed on a 20 cm long 0.8% horizontal agarose gel submerged in 1×TAE buffer at 40 V for 16 h. Gels were then dried and autoradiographed
Compound 20 which consists of both the epoxide and mustard functionality was tested at concentrations between 0.1 and 50 μM at 1 h, 2 h and 3 h intervals. […] Crosslink formation starts at concentrations as low as 0.1 μM and reaches 100% crosslinking at −10 μM. After incubation for an hour the CR50 (concentration at which 50% of the duplex is crosslinked) was determined to be 3.1 μM. The percentage of crosslinked DNA was determined from autoradiograph densitometry.

Turning to `C=C(C)[C@H](OC(=O)c1cc(OC)cc2c(C)cccc12)C(=O)NCCN1CCCC(Cl)C1` (stereo partly drawn) [Compound 21], the GI50 with 786-0 (Homo sapiens) stood at 4.48 µM; in the test on M14 (Homo sapiens), 1.75 µM; in the test with NCI-H522 (Homo sapiens), 5.1 µM; in the test on OVCAR-3 (Homo sapiens), 10.2 µM; with SF-268 (Homo sapiens), 11.9 µM; with SKOV-3 (Homo sapiens, SK-OV-3, OVAR) it was 17.2 µM. Also, the GI50 is 3.76 µM with SN12C (Homo sapiens); 5.63 µM in the test on SNB-19 (Homo sapiens); 12.1 µM with TK10 (Homo sapiens, TK-10, RENAL); 0.049 µM in the test with HCT-15; 1.2 µM in the test with SNB-75.

In the case of `COc1cc(C(=O)OC(C(=O)NCCN2CCCC(Cl)C2)C2(C)CO2)c2cccc(C)c2c1` (stereo not drawn) [Compound 20], in test [1] (1 h incubation), the “concentration at which crosslink formation starts” value turned out to be 0.1 µM. In addition, the EC50 in test [1] (1 h incubation, 37° C.) was determined as 3.1 µM; in test [1] (2 h incubation), 2.7 µM; in [1] (3 h incubation), 2.2 µM. Also, the GI50 in the test with 786-0 came to 100 µM; with M14 it was 100 µM; in the test on NCI-H522, 7.77 µM; in the test with OVCAR-3 it was 18.6 µM; with SF-268, 16.6 µM; in the test with SKOV-3 (OVAR), 19.7 µM. The concentration for 50% growth inhibition (GI50) in the test on SN12C amounted to 6.76 µM; in the test on SNB-19, 14.3 µM; in the test on TK10 (RENAL) it was 23.4 µM.

As a reminder, the GI50 is the concentration at which growth is held to half of that of the control.
